The results in this text go back to patent publication EP4653437A2 (Innovo Therapeutics Inc., priority 2023, dated 2024).

The target of one assay is T1, human 15-PGDH (Homo sapiens, UniProt P15428).
T1 construct: purchased R&D System 5660-DH
T1 sequence (P15428 1-266): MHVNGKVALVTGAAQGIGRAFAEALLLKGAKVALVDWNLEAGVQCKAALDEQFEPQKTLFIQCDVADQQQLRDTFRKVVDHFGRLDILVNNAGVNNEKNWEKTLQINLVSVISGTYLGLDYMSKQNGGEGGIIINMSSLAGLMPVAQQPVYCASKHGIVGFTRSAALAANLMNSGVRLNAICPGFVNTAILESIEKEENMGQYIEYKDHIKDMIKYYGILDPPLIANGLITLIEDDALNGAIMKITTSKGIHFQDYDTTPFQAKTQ
Briefly: Evaluation of 15-PGDH inhibitory activity (fluorescence enzyme assay, NAD+/PGE2). As to conditions: human 15-PGDH enzyme, fluorescence Vmax. The assay is classed as biochemical. Here is the method:
15-PGDH inhibition activity of Example compounds was measured as follows. 6.7 ng of human 15-PGDH (R&D System# 5660-DH) enzyme (10 µL) was added to a black 96 well plate, 60 µL of buffer (50 mM Tris-HCl, pH 7.5, 0.01% Tween 20) was added, and 10 µL of 200 µM β-Nicotinamide adenine dinucleotide sodium salt (Sigma, Cat# N0632-5G) was added. 10 µL of (10x) compound solution in DMSO was added and reacted for 10 minutes at room temperature.

The subject of a further assay is A549 cells. Description: Measurement of PGE2-increasing activity in A549 cells (IL-1β stimulated, PGE2 quantified in supernatant). The conditions noted are these: Homo sapiens, 24 h; concentration of 1 µM of each compound; IL-1β treated A549 cells; read-out: Increased PGE2 production in A549 cells. Type of assay: cell-based. The method, boiled down: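 A549 cells grown 24 h in F12K with 10% FBS, then switched to serum-free medium with or without IL-1β and compound (0.1% DMSO final). After 24 h at 37 °C, 5% CO2, supernatant PGE2 quantified by immunoassay.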

Where only a bound is given, the exact number is not on record here.

`O=C(Nc1cncc(-c2cccc3c(C(=O)N4CCCCC4)cnn23)c1)c1cncc(F)c1` [Example 335, 5-fluoro-N-(5-(3-(piperidine-1-carbonyl)pyrazolo[1,5-a]pyridin-7-yl)pyridin-3-yl)nicotinamide] returned an IC50 against human 15-PGDH of no more than 100 nM. Besides, the fold induction at 1 µM with A549 cells was greater than 1.5.
At human 15-PGDH, `CC(C)N1CCN(C(=O)c2cncc(-c3cccc4c(C(=O)N5CCCCC5)cnn34)c2)CC1` [Example 50, (4-isopropylpiperazin-1-yl)(5-(3-(piperidine-1-carbonyl)pyrazolo[1,5-a]pyridin-7-yl)pyridin-3-yl)methanone] returned an IC50 of no more than 100 nM. Also, the fold induction at 1 µM with A549 cells was greater than 1.5.
On human 15-PGDH, `CN1CC(NC(=O)c2cncc(-c3cccc4c(C(=O)N5CCCCC5)cnn34)c2)C1` [Example 202, N-(1-methylazetidin-3-yl)-5-[3-(piperidine-1-carbonyl)pyrazolo[1,5-a]pyridin-7-yl]pyridine-3-carboxamide] displayed an IC50 of no more than 100 nM. Moreover, in the assay with A549 cells, the fold induction at 1 µM is greater than 1.5.
On human 15-PGDH, `COc1cccc(Sc2cccc3c(C(=O)N4CCCCC4)cnn23)c1` [Example 194, (7-((3-methoxyphenyl)thio)pyrazolo[1,5-a]pyridin-3-yl)(piperidin-1-yl)methanone] came in with an IC50 of no more than 100 nM. Besides, the fold induction at 1 µM with A549 cells is less than 1.5.
The corresponding values for `O=C1NCCc2ccc(Nc3cccc4c(C(=O)N5CCCCC5)cnn34)cc21` [Example 211, 7-[[3-(piperidine-1-carbonyl)pyrazolo[1,5-a]pyridin-7-yl]amino]-3,4-dihydro-2H-isoquinolin-1-one] are no more than 100 nM and greater than 1.5.
At human 15-PGDH, `O=C(NCc1ccon1)c1cncc(-c2cccc3c(C(=O)N4CCCCC4)cnn23)c1` [Example 55, N-(isoxazol-3-ylmethyl)-5-(3-(piperidine-1-carbonyl)pyrazolo[1,5-a]pyridin-7-yl)nicotinamide] yielded an IC50 of no more than 100 nM. Also, the fold induction at 1 µM in the assay on A549 cells is greater than 1.5.
The corresponding values for `O=C(c1cnn2c(-c3csc4ccccc34)cccc12)N1CCCCC1` [Example 124, (7-(benzo[b]thiophen-3-yl)pyrazolo[1,5-a]pyridin-3-yl)(piperidin-1-yl)methanone] are no more than 100 nM and greater than 1.5.
The corresponding values for `O=C(O)c1ncc(-c2cccc3c(C(=O)N4CCCCC4)cnn23)cc1Cl` [Example 258, 3-chloro-5-[3-(piperidine-1-carbonyl)pyrazolo[1,5-a]pyridin-7-yl]pyridine-2-carboxylic acid] are no more than 100 nM and less than 1.5.
Regarding `Cc1nc(-c2ncc(-c3cccc4c(C(=O)N5CCCCC5)cnn34)cc2F)no1` [Example 263, [7-[5-fluoro-6-(5-methyl-1,2,4-oxadiazol-3-yl)-3-pyridyl]pyrazolo[1,5-a]pyridin-3-yl]-(1-piperidyl)methanone], the concentration for half-maximal inhibition (IC50) against human 15-PGDH was no more than 100 nM. In the assay on A549 cells, the fold induction at 1 µM is greater than 1.5.
The corresponding values for `O=C(c1cncc(-c2cccc3c(C(=O)N4CCCCC4)cnn23)c1)N1CCC1` [Example 41, azetidin-1-yl(5-(3-(piperidine-1-carbonyl)pyrazolo[1,5-a]pyridin-7-yl)pyridin-3-yl)methanone] are no more than 100 nM and greater than 1.5.
At human 15-PGDH, `O=C(c1cnn2c(NCCc3ccncc3)cccc12)N1CCCCC1` [Example 149, piperidin-1-yl(7-((2-(pyridin-4-yl)ethyl)amino)pyrazolo[1,5-a]pyridin-3-yl)methanone] gave an IC50 of no more than 100 nM. In addition, in the assay with A549 cells, the fold induction at 1 µM is greater than 1.5.
On the same counts, the results for `O=C(c1cnn2c(-c3cc(F)cc(-c4noc(=O)[nH]4)c3)cccc12)N1CCCCC1` [Example 299, 3-(3-fluoro-5-(3-(piperidine-1-carbonyl)pyrazolo[1,5-a]pyridin-7-yl)phenyl)-1,2,4-oxadiazol-5(4H)-one] are no more than 100 nM and greater than 1.5.
In the case of `N#Cc1ccc(-c2cccc3c(C(=O)N4CCCCC4)cnn23)cn1` [Example 18, 5-(3-(piperidine-1-carbonyl)pyrazolo[1,5-a]pyridin-7-yl)picolinonitrile], the IC50 against human 15-PGDH is no more than 100 nM. For the same molecule, in the assay on A549 cells, the fold induction at 1 µM is greater than 1.5.
The corresponding values for `Cn1nc2ccc(-c3cccc4c(C(=O)N5CCCCC5)cnn34)cn2c1=O` [Example 246, 2-methyl-6-(3-(piperidine-1-carbonyl)pyrazolo[1,5-a]pyridin-7-yl)-[1,2,4]triazolo[4,3-a]pyridin-3(2H)-one] are no more than 100 nM and greater than 1.5.
The corresponding values for `O=C(c1cnn2c(-c3ccc(N4CC(F)C4)nc3)cccc12)N1CCCCC1` [Example 208, (7-(6-(3-fluoroazetidin-1-yl)pyridin-3-yl)pyrazolo[1,5-a]pyridin-3-yl)(piperidin-1-yl)methanone] are no more than 100 nM and greater than 1.5.
With `O=C(c1cnn2c(-c3ccc(N4CCOC4=O)nc3)cccc12)N1CCCC(F)C1` (stereo not shown) [Example 383, 3-(5-(3-(3-fluoropiperidine-1-carbonyl)pyrazolo[1,5-a]pyridin-7-yl)pyridin-2-yl)oxazolidin-2-one], the IC50 at human 15-PGDH is no more than 100 nM. Moreover, in the assay on A549 cells, the fold induction at 1 µM was greater than 1.5.
On the same counts, the results for `O=C(c1cnn2c(-c3ccc(Cl)nc3)cccc12)N1CCCCC1` [Example 314, (7-(6-chloropyridin-3-yl)pyrazolo[1,5-a]pyridin-3-yl)(piperidin-1-yl)methanone] are no more than 100 nM and greater than 1.5.
On the same counts, the results for `O=C(c1cnn2c(-c3cc(-c4noc(=O)[nH]4)cc([N+](=O)[O-])c3)cccc12)N1CCCCC1` [Example 329, 3-(3-nitro-5-(3-(piperidine-1-carbonyl)pyrazolo[1,5-a]pyridin-7-yl)phenyl)-1,2,4-oxadiazol-5(4H)-one] are no more than 100 nM and greater than 1.5.
Molecule `CN1CCC(C(=O)Nc2cccc(-c3cccc4c(C(=O)N5CCCCC5)cnn34)c2)CC1` [Example 93, 1-methyl-N-(3-(3-(piperidine-1-carbonyl)pyrazolo[1,5-a]pyridin-7-yl)phenyl)piperidine-4-carboxamide] came in with an IC50 against human 15-PGDH of no more than 100 nM. Besides, the fold induction at 1 µM in the assay with A549 cells is greater than 1.5.
For `O=C1NCc2ccc(-c3cccc4c(C(=O)N5CCC6(CCC6)C5)cnn34)cc21` [Example 391, 6-(3-(6-azaspiro[3.4]octane-6-carbonyl)pyrazolo[1,5-a]pyridin-7-yl)isoindolin-1-one], at human 15-PGDH, the IC50 was no more than 100 nM. Also, the fold induction at 1 µM in the assay with A549 cells is greater than 1.5.
For `Cc1ncc(-c2cc(-c3cccc4c(C(=O)N5CCCCC5)cnn34)cc(N3CCOC3=O)n2)cn1` [Example 372, 3-(6-(2-methylpyrimidin-5-yl)-4-(3-(piperidine-1-carbonyl)pyrazolo[1,5-a]pyridin-7-yl)pyridin-2-yl)oxazolidin-2-one], on human 15-PGDH, the IC50 was no more than 100 nM. In addition, the fold induction at 1 µM in the assay on A549 cells is greater than 1.5.
As to `Nc1cncc(-c2cccc3c(C(=O)N4CCCCC4)cnn23)c1` [Example 9, (7-(5-aminopyridin-3-yl)pyrazolo[1,5-a]pyridin-3-yl)(piperidin-1-yl)methanone], the IC50 on human 15-PGDH is no more than 100 nM. In addition, the fold induction at 1 µM in the assay with A549 cells is greater than 1.5.
`Nc1nn2c(-c3ccc4c(c3)C(=O)NCC4)cccc2c1C(=O)N1CCCCC1` [Example 159, 7-(2-amino-3-(piperidine-1-carbonyl)pyrazolo[1,5-a]pyridin-7-yl)-3,4-dihydroisoquinolin-1(2H)-one] registered an IC50 at human 15-PGDH of 100 to 1000 nM. In addition, the fold induction at 1 µM in the assay with A549 cells is greater than 1.5.
The corresponding values for `CNc1nn2c(-c3ccc4c(c3)C(=O)NCC4)cccc2c1C(=O)N1CCCCC1` [Example 160] are greater than 1000 nM and less than 1.5.
The corresponding values for `N#CCCNC(=O)c1ccc(-c2cccc3c(C(=O)N4CCCCC4)cnn23)cn1` [Example 85, N-(2-cyanoethyl)-5-(3-(piperidine-1-carbonyl)pyrazolo[1,5-a]pyridin-7-yl)picolinamide] are no more than 100 nM and greater than 1.5.
`O=C(Cc1cccnc1)Nc1ccc(-c2cccc3c(C(=O)N4CCCCC4)cnn23)cc1` [Example 274, N-(4-(3-(piperidine-1-carbonyl)pyrazolo[1,5-a]pyridin-7-yl)phenyl)-2-(pyridin-3-yl)acetamide] showed an IC50 on human 15-PGDH of no more than 100 nM. Also, the fold induction at 1 µM in the assay with A549 cells is greater than 1.5.
In the case of `N#Cc1cc(F)cc(-c2cccc3c(C(=O)N4CCCCC4)cnn23)c1` [Example 291, 3-fluoro-5-(3-(piperidine-1-carbonyl)pyrazolo[1,5-a]pyridin-7-yl)benzonitrile], the IC50 on human 15-PGDH is no more than 100 nM. In the assay with A549 cells, the fold induction at 1 µM was greater than 1.5.
In turn, `N#Cc1ccc(-c2cccc3c(C(=O)N4CCC(F)CC4)cnn23)cc1` [Example 156, 4-(3-(4-fluoropiperidine-1-carbonyl)pyrazolo[1,5-a]pyridin-7-yl)benzonitrile] yielded an IC50 on human 15-PGDH of no more than 100 nM. Moreover, the fold induction at 1 µM in the assay with A549 cells was greater than 1.5.
The corresponding values for `O=C(c1cnn2c(-c3ccc4c(=O)[nH]ncc4c3)cccc12)N1CCCCC1` [Example 233, 6-(3-(piperidine-1-carbonyl)pyrazolo[1,5-a]pyridin-7-yl)phthalazin-1(2H)-one] are no more than 100 nM and greater than 1.5.
